Marks after values point to notes of the source that are not given here. Primed or numbered codes have the meaning given here. Where no end group is shown, it is not given here. The star is where a group is joined. Ac7‑β‑Cel = heptaacetyl-β-cellobioside (peracetylated β-cellobiose), CC(=O)OC[C@H]1O[C@@H](*)[C@H](OC(C)=O)[C@@H](OC(C)=O)[C@@H]1O[C@@H]1O[C@H](COC(C)=O)[C@@H](OC(C)=O)[C@H](OC(C)=O)[C@H]1OC(C)=O; Ac7‑β‑Lac = heptaacetyl-β-lactoside (peracetylated β-lactose), CC(=O)OC[C@H]1O[C@@H](O[C@H]2[C@H](OC(C)=O)[C@@H](OC(C)=O)[C@H](*)O[C@@H]2COC(C)=O)[C@H](OC(C)=O)[C@@H](OC(C)=O)[C@H]1OC(C)=O; Ac4‑β‑Gal = tetraacetyl-β-galactoside (peracetylated β-galactose), CC(=O)OC[C@H]1O[C@@H](*)[C@H](OC(C)=O)[C@@H](OC(C)=O)[C@H]1OC(C)=O; Ac3‑α‑Rha = triacetyl-α-rhamnoside (peracetylated α-rhamnose), CC(=O)O[C@@H]1[C@@H](OC(C)=O)[C@H](C)O[C@@H](*)[C@@H]1OC(C)=O; Ac4‑β‑Glc = per-acetylated β-glucose (tetraacetyl), CC(=O)OC[C@H]1O[C@@H](*)[C@H](OC(C)=O)[C@@H](OC(C)=O)[C@@H]1OC(C)=O; Ac3‑β‑Fuc = triacetyl-β-fucoside (peracetylated β-fucose), CC(=O)O[C@@H]1[C@H](OC(C)=O)[C@H](C)O[C@H](*)[C@H]1OC(C)=O; Ac3‑β‑Xyl = triacetyl-β-xyloside (peracetylated β-xylose), CC(=O)O[C@@H]1[C@@H](OC(C)=O)[C@H](OC(C)=O)CO[C@H]1*; Ac4‑β‑Glc″ = peracetylated beta-glucose, CC(=O)OC[C@H]1O[C@@H](*)[C@H](OC(C)=O)[C@@H](OC(C)=O)[C@@H]1OC(C)=O; β‑maltose = OC[C@H]1O[C@H](O[C@H]2[C@H](O)[C@@H](O)[C@H](*)O[C@@H]2CO)[C@H](O)[C@@H](O)[C@@H]1O; βGlc = OC[C@H]1O[C@@H](*)[C@H](O)[C@@H](O)[C@@H]1O; Palmitoyl = CCCCCCCCCCCCCCCC(=O)*
How the values were obtained:
[1] = test system: Human Dermal Fibroblasts (KMST-6); experiment: ECM ELISA assay: elastin secretion by human dermal fibroblasts; assay type: cell-based; conditions: 5 μM, % compared to control set at 100%, normalized to total protein; for Elastin Secretion at 48 hours: KMST-6, 48 hours; for Elastin Secretion at 72 hours: KMST-6, 72 hours
Method: (§1) KMST-6 cells (Japan Health Sciences Foundation, JCRB0433) were seeded at 7,000 cells/ml in 12-well tissue culture treated plates (Falcon, 353043) in complete media. The complete media consisted of the following: MEM/EBSS (Hyclone, SH30024.01), 10% Heat-Inactivated FBS (Gibco, 10082-147), 1% L-Glutamine (Hyclone, SH30031.01), 1% Nucleosides (800 mg/L Adenosine, 850 mg/L Guanidine, 730 mg/L Cytidine, 730 mg/L Uridine and 240 mg/L Thymidine), 1% Penicillin/Streptomycin (HyClone, SV30010), 1% Sodium Pyruvate (HyClone, SH30239.01), 1% Non-Essential Amino Acids (Hyclone, SH30238.01) and 0.04% Gentamicin (Gibco, 15710-064). Cells were grown for 2 days prior to treatments. The media was aspirated and cells were washed with 1×PBS (Fisher, SH30256.01) and treated with 5 μM (1 mL/well) glycopeptides, reference (Pal-KTTKS, CPC Scientific, 822197), and control (DMSO, Fisher, BP231-100) in serum-free media supplemented with 50 μg/mL Sodium Ascorbate (Sigma, A4034) and 80 μg/mL β-Aminopropionate Fumarate (Sigma, A3134). The treated cells were incubated at 37° C. and 5% CO2 for 48 and 72 hours. At each timepoint, media from each treatment was collected and centrifuged at 1500 RPM for 15 minutes at 4° C. The supernatant was collected and stored at −80° C. for extracellular matrix protein quantification. The following kits were used for quantification of ECM proteins: Fibronectin (Takara, MK115) and Elastin (Uscn Life Science Inc., E91337Hu). The cells were harvest and lysed with 250 μL Lysis Buffer (20 mM Tris-HCl (Sigma, T1503), 137 mM NaCl (Sigma, S9888), 2 mM EDTA (Fisher, BP118), 1% IGEPAL (Sigma, 18896), 10% Glycerol (Sigma, G5516), 100 μM PMSF (Fisher, 36978) and 10 μg/mL Leupeptin (Sigma-Aldrich, L2884). They were placed on a container of ice on a plate shaker (Lab-Line Instruments, 3595) for 30 minutes. The lysate was centrifuged at 10,000 g for 5 minutes at 4° C. The supernatant was collected and used for protein quantification (BioRad, 500-0112).
(§2) To determine effects on extracellular matrix protein secretion, 5 μM of individual glycopeptides were incubated with Human Dermal Fibroblasts (KMST-6). The control sample cells were treated with DMSO (Fisher, BP231-100). As described previously, supernatant was collected from treated cells (at two time-points, 48 and 72 hours of treatment) and stored at −80° C. for subsequent extracellular matrix protein quantification using ELISA kits (Fibronectin (Takara, MK115), Elastin (Uscn Life Science Inc., E91337Hu). For the determination of total cellular protein, treated cells were harvested and lysed. The lysate was centrifuged, the supernatant was collected and then used for protein quantification (BioRad, 500-0112). ELISA plates were read on the plate reader (Molecular Devices) at absorbance of 450 nm and SoftMax Pro software was used to compute the μg/ml values of protein of interest derived from the generated 4-parameter fit standard curve. Each μg/ml of protein secreted was normalized to total protein per well. The data was analysed by averaging out normalized values from at least three independent experiments and presenting them as a % compared to control treatment set at 100% (Table 2-5). Statistical significance was performed using One-way ANOVA (p<0.05) where “*” represents statistical significance when compared to control and “#” represents statistical significance when compared to reference. […]

[2] = test system: Human Dermal Fibroblasts (KMST-6); experiment: ECM ELISA assay: fibronectin secretion by human dermal fibroblasts; assay type: cell-based; conditions: 5 μM, % compared to control set at 100%, normalized to total protein; for Fibronectin secretion at 48 hours: KMST-6, 48 hours; for Fibronectin Secretion at 72 hours: KMST-6, 72 hours
Method: as §1, §2

Substance | Elastin Secretion at 48 hours [1] [%] | Elastin Secretion at 72 hours [1] | Fibronectin secretion at 48 hours [2] | Fibronectin Secretion at 72 hours [2] [%]
Dal-KT(β-Mal)TKS-OH (KT(β‑maltose)TKS-OH; not fully specified (N-terminus); printed as Dal-KT(β-Mal)TKS-OH; listed as Homo sapiens) [GP003-10] | 149.5 | 127.6% | 144.5% | 94.70
Pal-KN(Ac4-β-Glc)TKS-OH (Palmitoyl-KN(Ac4‑β‑Glc″)TKS-OH; listed as Homo sapiens) [GP003-5] | 211.4 | 194.2% | 146.0% | 136.0
Pal-KN(β-Glc)TKS-OH (Palmitoyl-KN(βGlc)TKS-OH; listed as Homo sapiens) [GP003-6] | 170.3 | 128.8% | 140.2% | 119.7
Pal-KS(Ac4-β-Glc)TKS-OH (Palmitoyl-KS(Ac4‑β‑Glc″)TKS-OH; SMILES CCCCCCCCCCCCCCCC(=O)N[C@@H](CCCCN)C(=O)N[C@@H](CO[C@@H]1O[C@H](COC(C)=O)[C@@H](OC(C)=O)[C@H](OC(C)=O)[C@H]1OC(C)=O)C(=O)N[C@H](C(=O)N[C@@H](CCCCN)C(=O)N[C@@H](CO)C(=O)O)[C@@H](C)O; listed as Homo sapiens) [GP003-3] | 177.1 | 146.8% | 162.0* % | 138.8
Pal-KT(Ac3-α-Rha)TKS-OH (Palmitoyl-KT(Ac3‑α‑Rha)TKS-OH; SMILES CCCCCCCCCCCCCCCC(=O)N[C@@H](CCCCN)C(=O)N[C@H](C(=O)N[C@H](C(=O)N[C@@H](CCCCN)C(=O)N[C@@H](CO)C(=O)O)[C@@H](C)O)[C@@H](C)O[C@@H]1O[C@@H](C)[C@H](OC(C)=O)[C@@H](OC(C)=O)[C@H]1OC(C)=O; listed as Homo sapiens) [GP004-7] | 241.0 | 193.0% |  | 
Pal-KT(Ac4-β-Gal)TKS-OH (Palmitoyl-KT(Ac4‑β‑Gal)TKS-OH; SMILES CCCCCCCCCCCCCCCC(=O)N[C@@H](CCCCN)C(=O)N[C@H](C(=O)N[C@H](C(=O)N[C@@H](CCCCN)C(=O)N[C@@H](CO)C(=O)O)[C@@H](C)O)[C@@H](C)O[C@@H]1O[C@H](COC(C)=O)[C@H](OC(C)=O)[C@H](OC(C)=O)[C@H]1OC(C)=O; listed as Homo sapiens) [GP004-1] | 215.3 | 202.0% |  | 
Pal-KT(Ac7-β-Cel)TKS-OH (Palmitoyl-KT(Ac7‑β‑Cel)TKS-OH; SMILES CCCCCCCCCCCCCCCC(=O)N[C@@H](CCCCN)C(=O)N[C@H](C(=O)N[C@H](C(=O)N[C@@H](CCCCN)C(=O)N[C@@H](CO)C(=O)O)[C@@H](C)O)[C@@H](C)O[C@@H]1O[C@H](COC(C)=O)[C@@H](O[C@@H]2O[C@H](COC(C)=O)[C@@H](OC(C)=O)[C@H](OC(C)=O)[C@H]2OC(C)=O)[C@H](OC(C)=O)[C@H]1OC(C)=O; listed as Homo sapiens) [GP004-9] | 199.3 | 254.6* % |  | 
Pal-KT(Ac7-β-Lac)TKS-OH (Palmitoyl-KT(Ac7‑β‑Lac)TKS-OH; SMILES CCCCCCCCCCCCCCCC(=O)N[C@@H](CCCCN)C(=O)N[C@H](C(=O)N[C@H](C(=O)N[C@@H](CCCCN)C(=O)N[C@@H](CO)C(=O)O)[C@@H](C)O)[C@@H](C)O[C@@H]1O[C@H](COC(C)=O)[C@@H](O[C@@H]2O[C@H](COC(C)=O)[C@H](OC(C)=O)[C@H](OC(C)=O)[C@H]2OC(C)=O)[C@H](OC(C)=O)[C@H]1OC(C)=O; listed as Homo sapiens) [GP004-5] | 195.3 | 209.5% |  | 
Pal-KTT(Ac4-β-Gal)KS-OH (Palmitoyl-KTT(Ac4‑β‑Gal)KS-OH; SMILES CCCCCCCCCCCCCCCC(=O)N[C@@H](CCCCN)C(=O)N[C@H](C(=O)N[C@H](C(=O)N[C@@H](CCCCN)C(=O)N[C@@H](CO)C(=O)O)[C@@H](C)O[C@@H]1O[C@H](COC(C)=O)[C@H](OC(C)=O)[C@H](OC(C)=O)[C@H]1OC(C)=O)[C@@H](C)O; listed as Homo sapiens) [GP004-2] | 186.5 | 138.3% |  | 
Pal-KTT(Ac4-β-Glc)KS-OH (Palmitoyl-KTT(Ac4‑β‑Glc)KS-OH; SMILES CCCCCCCCCCCCCCCC(=O)N[C@@H](CCCCN)C(=O)N[C@H](C(=O)N[C@H](C(=O)N[C@@H](CCCCN)C(=O)N[C@@H](CO)C(=O)O)[C@@H](C)O[C@@H]1O[C@H](COC(C)=O)[C@@H](OC(C)=O)[C@H](OC(C)=O)[C@H]1OC(C)=O)[C@@H](C)O; listed as Homo sapiens) [GP001-7] |  |  | 101.3% | 109.4
Pal-KTTKS(Ac3-α-Rha)-OH (Palmitoyl-KTTKS(Ac3‑α‑Rha)-OH; SMILES CCCCCCCCCCCCCCCC(=O)N[C@@H](CCCCN)C(=O)N[C@H](C(=O)N[C@H](C(=O)N[C@@H](CCCCN)C(=O)N[C@@H](CO[C@@H]1O[C@@H](C)[C@H](OC(C)=O)[C@@H](OC(C)=O)[C@H]1OC(C)=O)C(=O)O)[C@@H](C)O)[C@@H](C)O; listed as Homo sapiens) [GP004-8] | 166.8 | 169.3% |  | 
Pal-KTTKS(Ac3-β-Fuc)-OH (Palmitoyl-KTTKS(Ac3‑β‑Fuc)-OH; SMILES CCCCCCCCCCCCCCCC(=O)N[C@@H](CCCCN)C(=O)N[C@H](C(=O)N[C@H](C(=O)N[C@@H](CCCCN)C(=O)N[C@@H](CO[C@H]1O[C@@H](C)[C@@H](OC(C)=O)[C@@H](OC(C)=O)[C@@H]1OC(C)=O)C(=O)O)[C@@H](C)O)[C@@H](C)O; listed as Homo sapiens) [GP004-12] | 151.4 | 191.8% |  | 
Pal-KTTKS(Ac3-β-Xyl)-OH (Palmitoyl-KTTKS(Ac3‑β‑Xyl)-OH; SMILES CCCCCCCCCCCCCCCC(=O)N[C@@H](CCCCN)C(=O)N[C@H](C(=O)N[C@H](C(=O)N[C@@H](CCCCN)C(=O)N[C@@H](CO[C@@H]1OC[C@@H](OC(C)=O)[C@H](OC(C)=O)[C@H]1OC(C)=O)C(=O)O)[C@@H](C)O)[C@@H](C)O; listed as Homo sapiens) [GP004-11] | 178.8 | 121.3% |  | 
Pal-KTTKS(Ac7-β-Cel)-OH (Palmitoyl-KTTKS(Ac7‑β‑Cel)-OH; SMILES CCCCCCCCCCCCCCCC(=O)N[C@@H](CCCCN)C(=O)N[C@H](C(=O)N[C@H](C(=O)N[C@@H](CCCCN)C(=O)N[C@@H](CO[C@@H]1O[C@H](COC(C)=O)[C@@H](O[C@@H]2O[C@H](COC(C)=O)[C@@H](OC(C)=O)[C@H](OC(C)=O)[C@H]2OC(C)=O)[C@H](OC(C)=O)[C@H]1OC(C)=O)C(=O)O)[C@@H](C)O)[C@@H](C)O; listed as Homo sapiens) [GP004-10] | 211.3 | 187.0% |  | 
Pal-KTTKS(Ac7-β-Lac)-OH (Palmitoyl-KTTKS(Ac7‑β‑Lac)-OH; SMILES CCCCCCCCCCCCCCCC(=O)N[C@@H](CCCCN)C(=O)N[C@H](C(=O)N[C@H](C(=O)N[C@@H](CCCCN)C(=O)N[C@@H](CO[C@@H]1O[C@H](COC(C)=O)[C@@H](O[C@@H]2O[C@H](COC(C)=O)[C@H](OC(C)=O)[C@H](OC(C)=O)[C@H]2OC(C)=O)[C@H](OC(C)=O)[C@H]1OC(C)=O)C(=O)O)[C@@H](C)O)[C@@H](C)O; listed as Homo sapiens) [GP004-6] | 218.6 | 170.0% |  | 
